Test results published in patent publication US10392422B2, “Macrocyclic broad spectrum antibiotics” (priority 2014, dated 2019).
Values after ≈ are worked out from the molar mass of the structure shown. Like-named read-outs stand apart in the source and are kept apart here.

Columns and labels:
Test in all cases: MIC, broth micro-dilution technique (CLSI)
MRSA COL (NRS100) = assay type: cell-based, Staphylococcus aureus; details: Staphylococcus aureus, 22 h, read-out: MIC (μg/mL) (COL)
Method: (§1) In vitro antimicrobial activity of each compound was determined by measuring minimal inhibitor concentrations (MICs) using the broth micro-dilution technique as approved by the Clinical and Laboratory Standards Institute (CLSI) (Methods for Dilution Antimicrobial Susceptibility Tests for Bacteria that Grow Aerobically; Approved Standard—Eighth Edition. CLSI document M07-A8. Wayne, Pa.: Clinical and Laboratory Standards; 2009). Antibacterial activity was measured against three strains of bacteria: a Methicillin Resistant Staphylococcus aureus strain USA 300 (NRS384); a MRSA COL (NRS100), another Methicillin Resistant Staphylococcus aureus strain; and a strain of Escherichia coli MC4100 harboring the IMP4213, which results in increased outer-membrane permeability (B Martin and Silhavy T. Imp/OstA is required for cell envelope biogenesis in Escherichia coli. (2002) Molecular Microbiology, 45(5), 1289-1302). Cells were inoculated onto plates of Trypyticase Soy Agar or Luria Agar respectively and grown at 35° C. for 20 hours. Inocula suspensions were prepared by scraping cells into 1 ml of testing media (cation adjusted Mueller Hinton Broth supplemented with 0.002% v/v Tween-80) and diluting to a final OD600 nm of 0.01.
(§2) Test compounds were prepared in DMSO at a concentration of 10 mg/ml. These compound stocks were diluted into testing media at a concentration of 64 μg/ml and serial 2-fold dilutions were made in the same media, in 96-well U bottom microtiter dishes, for a total of 10 compound concentrations (Table 1). In modified protocols (Table 2), compound stocks were diluted into testing media at a concentration of 4 μg/mL and serial 2-fold dilutions were made in the same media, in 96-well U bottom microtiter dishes, for a total of 10 compound concentrations. Inocula suspensions were added to the 2-fold serial dilutions of test compounds to a final density of OD OD600 nm of 0.0005 and incubated at 35° C. for 22 hours. […] The results from the protocol starting from a concentration of 64 µg/mL are listed in Table 1 and the results from the modified protocol are shown in Table 2.

[1] = tested on: Escherichia coli MC4100 harboring the IMP4213; assay type: cell-based; details: 35° C., 22 hours; for MIC: Escherichia coli, 22 h, read-out: MIC (μg/mL) E. coli, Table 1 protocol: serial 2-fold dilutions starting from 64 μg/ml; for MIC (μg/mL) E. coli: Table 1 protocol: serial 2-fold dilutions starting from 64 μg/ml
Method: as §1, §2

[2] = tested on: Methicillin Resistant Staphylococcus aureus strain USA 300 (NRS384); assay type: cell-based; details: for MIC: Staphylococcus aureus, 22 h, read-out: MIC (μg/mL) S. aureus
Method: as §1, §2

[3] = Table 1 protocol: serial 2-fold dilutions starting from 64 μg/ml, 35° C., 22 hours

Row | SMILES | MIC [1] [µg/mL] | MIC [2, 3] [µg/mL] | MIC [2] [µg/mL] | further results
1 | C[C@@H]1NC(=O)[C@@H](N(C)C(=O)[C@H](CCCCN)NC(=O)c2ccc(-c3ccc(Cl)cc3)cc2)c2ccc(O)c(c2)-c2cc(ccc2O)C[C@@H](C(=O)N[C@@H](C)C(=O)C2CO2)NC1=O (some centres unmarked) [Compound 104] | 2 (≈ 2.34 µM) | 2.8 (≈ 3.28 µM) | – | MIC (MRSA COL (NRS100); [3]): 2 µg/mL (≈ 2.34 µM)
2 | CC(=O)[C@H](C)NC(=O)[C@@H]1Cc2ccc(O)c(c2)-c2cc(ccc2O)[C@H](N(C)C(=O)[C@H](CCCCN)NC(=O)c2ccc(-c3ccc(Cl)cc3)cc2)C(=O)N[C@@H](C)C(=O)N1 [Compound 109] | 64 (≈ 77.5 µM) | – | 4 (≈ 4.85 µM) | MIC (MRSA COL (NRS100)): 1 µg/mL (≈ 1.21 µM)
3 | CCCCCCCCCCNCCC(=O)N[C@@H](CCCCN)C(=O)N(C)[C@@H]1C(=O)N[C@@H](C)C(=O)N[C@H](C(=O)O)Cc2ccc(O)c(c2)-c2cc1ccc2O [Compound 110] | 64 (≈ 85 µM) | – | 29 (≈ 38.5 µM) | MIC (MRSA COL (NRS100)): 8 µg/mL (≈ 10.6 µM)
4 | C[C@H](NCC(=O)[C@H](C)NC(=O)[C@@H]1Cc2ccc(O)c(c2)-c2cc(ccc2O)[C@H](N(C)C(=O)[C@H](CCCCN)NC(=O)c2ccc(-c3ccc(Cl)cc3)cc2)C(=O)N[C@@H](C)C(=O)N1)C(N)=O [Compound 125] | – | – | 32 (≈ 35.1 µM) | MIC (MRSA COL (NRS100)): 8 µg/mL (≈ 8.78 µM)
5 | C[C@H](NC(=O)[C@@H]1Cc2ccc(O)c(c2)-c2cc(ccc2O)[C@H](N(C)C(=O)[C@H](CCCCN)NC(=O)c2ccc(-c3ccc(Cl)cc3)cc2)C(=O)N[C@@H](C)C(=O)N1)C(=O)/C=C/c1c[nH]cn1 [Compound 131] | > 64 | > 64 | – | –
6 | C[C@H](NC(=O)[C@@H]1Cc2ccc(O)c(c2)-c2cc(ccc2O)[C@H](N(C)C(=O)[C@H](CCCCN)NC(=O)c2ccc(-c3ccc(Cl)cc3)cc2)C(=O)N[C@@H](C)C(=O)N1)C(=O)CS(N)(=O)=O [Compound 143] | 51 (≈ 56.4 µM) | – | 6.3 (≈ 6.97 µM) | –
7 | CCOC(=O)CCC(=O)[C@H](C)NC(=O)[C@@H]1Cc2ccc(O)c(c2)-c2cc(ccc2O)[C@H](N(C)C(=O)[C@H](CCCCN)NC(=O)c2ccc(-c3ccc(Cl)cc3)cc2)C(=O)N[C@@H](C)C(=O)N1 [Compound 146] | – | – | 16 (≈ 17.6 µM) | MIC (MRSA COL (NRS100)): 8 µg/mL (≈ 8.78 µM)
8 | C[C@H](NC(=O)[C@@H]1Cc2ccc(O)c(c2)-c2cc(ccc2O)[C@H](N(C)C(=O)[C@H](CCCCN)NC(=O)c2ccc(-c3ccc(Cl)cc3)cc2)C(=O)N[C@@H](C)C(=O)N1)C(=O)CCC(N)=O [Compound 148] | – | – | 64 (≈ 72.5 µM) | MIC (MRSA COL (NRS100)): 32 µg/mL (≈ 36.3 µM)
9 | C[C@@H]1NC(=O)[C@@H](N(C)C(=O)[C@H](CCCCN)NC(=O)c2ccc(-c3ccc(Cl)cc3)cc2)c2ccc(O)c(c2)-c2cc(ccc2O)C[C@@H](C(=O)NCC(=O)CC2CCNC2=O)NC1=O (some centres unmarked) [Compound 150] | – | > 64 | – | MIC (μg/mL) E. coli [1]: 8 µg/mL (≈ 8.94 µM)
10 | C[C@@H]1NC(=O)[C@@H](N(C)C(=O)[C@H](CCCCN)NC(=O)c2ccc(-c3ccc(Cl)cc3)cc2)c2ccc(O)c(c2)-c2cc(ccc2O)C[C@@H](C(=O)NCC(=O)CC2CCNC2=O)NC1=O (some centres unmarked) [Compound 151] | – | – | – | MIC (μg/mL) E. coli [1]: 32 µg/mL (≈ 35.8 µM); MIC (μg/mL) S. aureus [2, 3]: >64 µg/mL
11 | CC(O)[C@@H]1Cc2ccc(O)c(c2)-c2cc(ccc2O)[C@H](N(C)C(=O)[C@H](CCCCN)NC(=O)c2ccc(-c3ccc(Cl)cc3)cc2)C(=O)N[C@@H](C)C(=O)N1 (some centres unmarked) [Compound 154] | 64 (≈ 84.6 µM) | – | 64 (≈ 84.6 µM) | –
12 | C[C@@H]1NC(=O)[C@@H](N(C)C(=O)[C@H](CCCCN)NC(=O)c2ccc(-c3ccc(Cl)cc3)cc2)c2ccc(O)c(c2)-c2cc(ccc2O)C[C@@H](C(=O)N[C@@H](C)C(=O)N2CCCC2)NC1=O [Compound 156] | 51 (≈ 57.9 µM) | – | > 64 | –
13 | C[C@@H]1NC(=O)[C@@H](N(C)C(=O)[C@H](CCCCN)NC(=O)c2ccc(-c3ccc(Cl)cc3)cc2)c2ccc(O)c(c2)-c2cc(ccc2O)C[C@@H](C(=O)N[C@@H](C)C(=O)N2CCC[C@H]2CO)NC1=O [Compound 157] | 45 (≈ 49.4 µM) | – | > 64 | –
14 | C[C@@H]1NC(=O)[C@@H](N(C)C(=O)[C@H](CCCCN)NC(=O)c2ccc(-c3ccc(Cl)cc3)cc2)c2cc(Br)c(O)c(c2)-c2cc(cc(Br)c2O)C[C@@H](C(=O)O)NC1=O [Compound 164] | 8 (≈ 8.75 µM) | – | 32 (≈ 35 µM) | –
15 | C[C@@H]1NC(=O)[C@@H](N(C)C(=O)[C@H](CCCCN)NC(=O)c2ccc(-c3ccc(Cl)cc3)cc2)c2ccc(O)c(c2)-c2cc(cc(Br)c2O)C[C@@H](C(=O)O)NC1=O [Compound 165] | 11 (≈ 13.2 µM) | – | 45 (≈ 53.9 µM) | –
16 | C[C@@H]1NC(=O)[C@@H](N(C)C(=O)[C@H](CCCCN)NC(=O)c2ccc(-c3ccc(Cl)cc3)cc2)c2ccc(O)c(c2)-c2cc(ccc2O)C[C@@H](C(=O)N[C@@H](C)C(=O)N2CC[C@H](O)[C@H]2C(N)=O)NC1=O [Compound 168] | 32 (≈ 34.1 µM) | 5.7 (≈ 6.07 µM) | – | –
17 | C[C@@H]1NC(=O)[C@@H](N(C)C(=O)[C@H](CCCCN)NC(=O)c2ccc(-c3ccc(Cl)cc3)cc2)c2ccc(O)c(c2)-c2cc(ccc2O)C[C@@H](C(=O)N[C@@H](C)C(=O)N2C[C@H](O)C[C@H]2C(N)=O)NC1=O [Compound 169] | 64 (≈ 68.1 µM) | 45 (≈ 47.9 µM) | – | –
18 | C[C@@H]1NC(=O)[C@@H](N(C)C(=O)[C@H](CCCCN)NC(=O)c2ccc(-c3ccc(Cl)cc3)cc2)c2ccc(O)c(c2)-c2cc(ccc2O)C[C@@H](C(=O)N[C@@H](C)C(=O)N2C[C@H]3C[C@H]3[C@H]2C(N)=O)NC1=O [Compound 170] | 64 (≈ 68.4 µM) | 45 (≈ 48.1 µM) | – | –
19 | C[C@@H]1NC(=O)[C@@H](N(C)C(=O)[C@H](CCCCN)NC(=O)c2ccc(-c3ccc(Cl)cc3)cc2)c2ccc(O)c(c2)-c2cc(ccc2O)C[C@@H](C(=O)N[C@@H](C)C(=O)N2CC[C@H]2C(N)=O)NC1=O [Compound 171] | 64 (≈ 70.4 µM) | 20 (≈ 22 µM) | – | –
20 | C[C@@H]1NC(=O)[C@@H](N(C)C(=O)[C@H](CCCCN)NC(=O)c2ccc(-c3ccc(Cl)cc3)cc2)c2ccc(O)c(c2)-c2cc(ccc2O)C[C@@H](C(=O)N[C@@H](C)C(=O)N2C[C@@H](F)C[C@H]2C(N)=O)NC1=O [Compound 172] | 64 (≈ 68 µM) | 16 (≈ 17 µM) | – | –
21 | C[C@@H]1NC(=O)[C@@H](N(C)C(=O)[C@H](CCCCN)NC(=O)c2ccc(-c3ccc(Cl)cc3)cc2)c2ccc(O)c(c2)-c2cc(ccc2O)C[C@@H](C(=O)N[C@@H](C)C(=O)N2CCCC[C@H]2C(N)=O)NC1=O [Compound 173] | 32 (≈ 34.1 µM) | 64 (≈ 68.3 µM) | – | –
22 | C[C@@H]1NC(=O)[C@@H](N(C)C(=O)[C@H](CCCCN)NC(=O)c2ccc(-c3ccc(Cl)cc3)cc2)c2ccc(O)c(c2)-c2cc(ccc2O)C[C@@H](C(=O)N[C@@H](C)C(=O)N2CC(F)(F)C[C@H]2C(N)=O)NC1=O [Compound 174] | 64 (≈ 66.7 µM) | 9.5 (≈ 9.9 µM) | – | –
23 | C[C@@H]1NC(=O)[C@@H](N(C)C(=O)[C@H](CCCCN)NC(=O)c2ccc(-c3ccc(Cl)cc3)cc2)c2ccc(O)c(c2)-c2cc(ccc2O)C[C@@H](C(=O)N[C@@H](C)C(=O)N2CCC[C@H]2C(=O)NCC(N)=O)NC1=O [Compound 178] | – | 32 (≈ 32.6 µM) | – | MIC (MRSA COL (NRS100); [3]): 16 µg/mL (≈ 16.3 µM)
24 | C[C@@H]1NC(=O)[C@@H](N(C)C(=O)[C@H](CCCCN)NC(=O)c2ccc(-c3ccc(Cl)cc3)cc2)c2ccc(O)c(c2)-c2cc(ccc2O)C[C@@H](C(=O)NCC(=O)N2CC[C@H](O)[C@H]2C(N)=O)NC1=O [Compound 180] | 64 (≈ 69.2 µM) | 64 (≈ 69.2 µM) | – | –
25 | CC[C@H](NC(=O)[C@@H]1Cc2ccc(O)c(c2)-c2cc(ccc2O)[C@H](N(C)C(=O)[C@H](CCCCN)NC(=O)c2ccc(-c3ccc(Cl)cc3)cc2)C(=O)N[C@@H](C)C(=O)N1)C(=O)N1CCC[C@H]1C(N)=O [Compound 181] | 64 (≈ 68.3 µM) | 23 (≈ 24.5 µM) | – | –
26 | CONC(=O)[C@@H]1CCCN1C(=O)[C@H](C)NC(=O)[C@@H]1Cc2ccc(O)c(c2)-c2cc(ccc2O)[C@H](N(C)C(=O)[C@H](CCCCN)NC(=O)c2ccc(-c3ccc(Cl)cc3)cc2)C(=O)N[C@@H](C)C(=O)N1 [Compound 185] | 64 (≈ 67.1 µM) | – | 45 (≈ 47.2 µM) | –
27 | CC(=O)[C@H](C)NC(=O)[C@@H]1Cc2ccc(O)c(c2)-c2cc(ccc2OCCN2CCOCC2)[C@H](N(C)C(=O)[C@H](CCCCN)NC(=O)c2ccc(-c3ccc(Cl)cc3)cc2)C(=O)N[C@@H](C)C(=O)N1 [Compound 203] | – | 23 (≈ 24.5 µM) | – | MIC (MRSA COL (NRS100); [3]): 8 µg/mL (≈ 8.52 µM)
28 | CCCCCCCCCCCCCC(=O)N[C@@H](CCN)C(=O)N(C)[C@@H]1C(=O)N[C@@H](C)C(=O)N[C@H](C(=O)O)Cc2ccc(OCCN)c(c2)-c2cc1ccc2OCCN [Compound 299] | – | – | 0.19 (≈ 0.235 µM) | MIC (MRSA COL (NRS100)): 0.031 µg/mL (≈ 0.0383 µM)
